According to patent publication US12178841B2, “Treatment of non-cystic fibrosis bronchiectasis” (priority 2021, dated 2024):
“Also recorded” adds a separate entry of the source. Where two headings read alike, the source gives them in different places.

How the values were obtained:
[1] = ORBIT-3 and RESPIRE-2 trials; cited from earlier work
[2] = 1 MIU [33 mg CBA] via I-neb twice a day, up to 6 months, placebo 0.45% saline, cited from earlier work
[3] = PROMIS I Phase III clinical study: pulmonary exacerbations under inhaled CMS by I-neb vs placebo; type: in vivo, human
[4] = tested on: Pseudomonas aeruginosa; assay: PROMIS I: Pseudomonas aeruginosa density in sputum; type: in vivo, human; conditions: for Mean change from baseline in P. aeruginosa density (mITT): n = 176
Description: Least square means in each treatment group, least square mean difference between treatments, their 95% CIs and associated p-values will be estimated.
Summary statistics of the P. aeruginosa density (log 10 CFU/g sputum) and change from baseline (Visit 2) will be provided by treatment group for each trial visit.
Results of the quantitative analysis for P. aeruginosa density will be presented as colony forming units (CFU) count per gram sputum.

[5] = human, in vivo; cited from earlier work
[6] = design: species or system human; conditions: in vivo
Description: Safety Variables • incidence of TEAEs; • absolute changes in percent-predicted FEV1 from baseline (Visit 2) to end of treatment (Visit 7); • number of subjects experiencing bronchospasm clinically or spirometrically determined following IMP administration at the start and end of treatment; • P. aeruginosa resistance to colistin sulphate as determined by in-vitro susceptibility testing on sputum from Screening/Randomisation (Visit 1/Visit 2) to Visits 3, 5 and end of treatment (Visit 7) as well as on sputum from Exacerbation Visits and clinic visits due to pneumonia; • emergence of other bacterial colonies and any developing resistance in sputum from Screening (Visit 1) to End of Treatment (Visit 7); • haematology, clinical chemistry and renal function tests; • physical examination and vital signs data; • 12-lead electrocardiogram

Compound: O=C(O)c1cn(C2CC2)c2cc(N3CCNCC3)c(F)cc2c1=O [ciprofloxacin]
- primary endpoints [1]: failed to achieve their primary endpoints

Compound: colistin
- time to first exacerbation (primary endpoint) vs placebo [2]: not to be associated with a statistically significant improvement

Compound: colistimethate sodium
- annual rate of exacerbations ([3]; CMS 1 MIU (33 mg CBA) by I-neb twice a day, 12 months, placebo 0.95): 0.58 per patient per year
- severe exacerbations (requiring intravenous antibiotics and/or hospitalization), RR ([3]; CMS I-neb vs placebo, 95% CI 0.23-0.74, p=0.003): 0.41
- time to first exacerbation, Hazard Ratio (HR) ([3]; CMS I-neb vs placebo, 95% CI 0.43-0.81, p=0.00074): 0.59
- rate ratio (RR) of annual rate of exacerbations vs placebo ([3]; CMS I-neb vs placebo, 95% CI 0.46-0.82, p=0.00101): 0.61
- Mean change from baseline in P. aeruginosa density (mITT) ([4]; Visit 3 (28 days)): −1.59 log10(CFU/mL)
- Mean change from baseline in P. aeruginosa density (mITT) ([4]; Visit 5 (6 months)): −1.39 log10(CFU/mL)
- Mean change from baseline in P. aeruginosa density (mITT) ([4]; Visit 6 (9 months)): −1.56 log10(CFU/mL)
- Mean change from baseline in P. aeruginosa density (mITT) ([4]; Visit 7 (12 months/EOT), includes those who discontinued early): −0.86 log10(CFU/mL)
- P. aeruginosa density (in words) ([4]; patients on colistimethate sodium over the study): fell rapidly and remained suppressed; also recorded: falls rapidly and remains suppressed
- time to first exacerbation (primary endpoint) vs placebo [2]: not statistically different
- time to first exacerbation (primary endpoint) vs placebo ([2]; listed as CMS): failed to achieve its primary endpoint
- adverse respiratory effects (cough, dyspnoea, bronchospasm, sore throat), people affected [5]: at least 1 in 10
- broncospasm experienced clinically [6]: 0.6%
- safety and tolerability (in words) [6]: safe and well tolerated
